In patent US4070469A, “Compound for the treatment of bovine mastitis” (priority 1975, dated 1978):
Values after ≈ are worked out from the molar mass of the structure shown. “Also recorded” adds a separate entry of the source. Read-outs that look alike come from different tables or passages of the source.

Columns and labels:
udder = assay: Number of leucocytes (somatic cells) in milk / irritation of the udder; format: in vivo, cow; details: for number of leucocytes (sematic cells) in milk, 40 hrs.: 40 hrs after 500 mg in 7 ml P.E.G. base; for number of leucocytes (sematic cells) in milk, 48 hrs.: 48 hrs after 500 mg in 7 ml P.E.G. base; for number of leucocytes (sematic cells) in milk, 56 hrs.: 56 hrs after 500 mg in 7 ml P.E.G. base; for number of leucocytes (sematic cells) in milk, before: before administration (baseline)
Procedure: Thereafter 500 mg of each of said compounds in 7 ml of a P.E.G. base and also 7 ml of said base above were administered to several cows and the number of leucocytes (sematic cells) in 10^6 per ml of milk were measured before administration and 40, 48 and 56 hours thereafter. The numbers of leucocytes present indicate the degree of irritation of the udder.

[1] = Residue of active compound in milk of the cow; format: in vivo; details: 500 mg in 7 ml P.E.G. base; for concentration at 24 h / concentration at 32 h: bovine, milk
Procedure: Said four compounds were then tested for the length of time they could be detected in the milk of the cow. For this purpose 500 mg in 7 ml of a polyethylene glycol (P.E.G.) base of each compound were administered to several cows and the residue of active compound in milk were measured in mcg/ml after 24, 32 and 40 hours respectively.

Staph.Aureus [2] = assay: Minimal bactericidal activity (MBC) in milk, field isolates; format: cell-based; details: in milk at pH 7.2 - 7.4; for MBC: Staphylococcus aureus
From the text: (§1) The activity of some of said nitrofuryl quinolines derivatives against Strep.uberis and Stap.Aureus in milk has been compared with the activity of some of the compounds so far utilised in the treatment of bovine mastitis. The results are shown in Table I. (The nitrofuryl quinoline derivatives have general formula [drawing 1] the meaning of R, A, R', B, Y, X and Z being given in the Table. R1 =O whenever indicated then the N-oxide is concerned; NF stands for nitrofuryl)
(§2) Minimal Bactericidal/Activity (MBC) of representative Nitrofuryl
(§3) in mcg/ml in milk at pH 7.2 - 7.4. Versus Standards (Field

Strep.uberis = assay: as above; format: cell-based; details: in milk at pH 7.2 - 7.4; for MBC: Streptococcus uberis
From the text: as §1, §2, §3

[3] = tested on: Strep.uberis and Stap.Aureus; assay: Activity against mastitis bacteria in presence of milk (Table I, summary in words); format: cell-based
From the text: as §1

Steph.aureus = assay: Efficiency test in cows suffering from bovine mastitis; format: in vivo, cow; details: 2 doses, 24 hours interval
Procedure: In has been shown that said range is effectful by an efficiency test in which various doses of 4-(5-nitrofuryl)-.quinaldinic acid N-oxide were administered to cows suffering from bovine mastitis. There were adminstered 2 doses in intervals of 24 hours. The results are shown in Table V in cured quarters/treated quarters.

LD50 rats = details: rat, in vivo
LD50 mice = details: mouse, in vivo
Str.uberls = assay: Efficiency test in cows suffering from bovine mastitis; format: in vivo, cow; details: 2 doses, 24 hours interval
Str.uberis = assay: Sensitivity of udder pathogens in milk, serial dilution; format: cell-based; details: 24 hours, 32 strains
Procedure: (§4) This indication was verified by testing in vitro by the method of serial dilution the sensitivity of said compound against udder pathogens in milk in various concentrations measured in meg/ml of milk. The number of strains which were killed at each concentration were measured after 24 hours.

Str.dysgalactiae = assay: as above; format: cell-based; details: 24 hours, 18 strains
Procedure: as §4

C.pyogenes = assay: as above; format: cell-based; details: 24 hours, 3 strains
Procedure: as §4

Str.agalactiac = assay: as above; format: cell-based; details: 24 hours, 34 strains
Procedure: as §4

Enterococci = assay: as above; format: cell-based; details: 24 hours, 8 strains
Procedure: as §4

Staph.Aureus [4] = assay: as above; format: cell-based; details: 24 hours, 86 strains
Procedure: as §4

Str.dysgal. = assay: Efficiency test in cows suffering from bovine mastitis; format: in vivo, cow; details: 2 doses, 24 hours interval
[5] = field isolate 2337, read-out: Minimal Bactericidal Activity (MBC), Staph.Aureus 2337
[6] = field isolate 2372, read-out: Minimal Bactericidal Activity (MBC), Staph.Aureus 2372
[7] = field isolate 60B, read-out: Minimal Bactericidal Activity (MBC), Strep.uberis 60B
[8] = field isolate 127A, read-out: Minimal Bactericidal Activity (MBC), Strep.uberis 127A
[9] = 25 meg/ml of milk (so in the source)

## O=C(O)c1cc(-c2ccc([N+](=O)[O-])o2)c2ccccc2[n+]1[O-] [Compound 1, 2-carboxy-4-[2'-(5'-nitrofuryl)]quinoline N-oxide]
udder; 500 mg in 7 ml P.E.G. base
  irritation of the udder (in words): caused the lowest irritation
udder
  number of leucocytes (sematic cells) in milk, 40 hrs.: 0.95 10^6 per ml
  number of leucocytes (sematic cells) in milk, 48 hrs.: 1.5 10^6 per ml
  number of leucocytes (sematic cells) in milk, 56 hrs.: 0.95 10^6 per ml
  number of leucocytes (sematic cells) in milk, before: 0.28 10^6 per ml
[1]
  time remaining in the milk (in words): remained the shortest time in the milk
  concentration at 24 h: 9800 ng/mL
Staph.Aureus [2]; [5]
  MBC: 0.5 µg/mL (≈ 1.67 µM)
Staph.Aureus [2]; [6]
  MBC: 0.25 µg/mL (≈ 0.833 µM)
Strep.uberis; [7]
  MBC: 0.015 µg/mL (≈ 0.05 µM)
Strep.uberis; [8]
  MBC: 0.25 µg/mL (≈ 0.833 µM)
[3]
  activity in presence of milk (in words): significant activity in milk; also recorded: the most active one
Steph.aureus; 50 mg
  cured quarters, percent: 50%
  cured quarters/treated quarters: 15/30
Steph.aureus; 100 mg
  cured quarters, percent: 75%
  cured quarters/treated quarters: 6/8
Steph.aureus; 250 mg
  cured quarters, percent: 75%
  cured quarters/treated quarters: 6/8
Steph.aureus; 500 mg
  cured quarters, percent: 88%
  cured quarters/treated quarters: 8/9
LD50 rats
  LD50: 1600 mg/kg
LD50 mice
  LD50: 3000 mg/kg
Str.uberls; 50 mg
  cured quarters, percent: 61.5%
  cured quarters/treated quarters: 8/13
Str.uberls; 100 mg
  cured quarters, percent: 80%
  cured quarters/treated quarters: 4/5
Str.uberls; 250 mg
  cured quarters, percent: 80%
  cured quarters/treated quarters: 4/5
Str.uberls; 500 mg
  cured quarters, percent: 84%
  cured quarters/treated quarters: 5/6
Str.uberis; 0.16 meg/ml of milk
  number of strains killed: 1 strains
Str.uberis; 0.31 meg/ml of milk
  number of strains killed: 9 strains
Str.uberis; 0.62 meg/ml of milk
  number of strains killed: 18 strains
Str.uberis; 1.25 meg/ml of milk
  number of strains killed: 2 strains
Str.uberis; 5 meg/ml of milk
  number of strains killed: 1 strains
Str.uberis; [9]
  number of strains killed: 1 strains
Str.dysgalactiae; 0.02 meg/ml of milk
  number of strains killed: 1 strains
Str.dysgalactiae; 0.04 meg/ml of milk
  number of strains killed: 2 strains
Str.dysgalactiae; 0.08 meg/ml of milk
  number of strains killed: 13 strains
Str.dysgalactiae; 0.16 meg/ml of milk
  number of strains killed: 1 strains
Str.dysgalactiae; 0.62 meg/ml of milk
  number of strains killed: 1 strains
C.pyogenes; 0.62 meg/ml of milk
  number of strains killed: 1 strains
C.pyogenes; 1.25 meg/ml of milk
  number of strains killed: 2 strains
Str.agalactiac; 0.02 meg/ml of milk
  number of strains killed: 5 strains
Str.agalactiac; 0.04 meg/ml of milk
  number of strains killed: 12 strains
Str.agalactiac; 0.08 meg/ml of milk
  number of strains killed: 13 strains
Str.agalactiac; 0.16 meg/ml of milk
  number of strains killed: 1 strains
Str.agalactiac; 0.31 meg/ml of milk
  number of strains killed: 1 strains
Str.agalactiac; 0.62 meg/ml of milk
  number of strains killed: 1 strains
Str.agalactiac; 1.25 meg/ml of milk
  number of strains killed: 1 strains
Enterococci; 0.04 meg/ml of milk
  number of strains killed: 2 strains
Enterococci; 0.08 meg/ml of milk
  number of strains killed: 3 strains
Enterococci; 0.16 meg/ml of milk
  number of strains killed: 2 strains
Enterococci; 0.31 meg/ml of milk
  number of strains killed: 1 strains
Staph.Aureus [4]; 0.16 meg/ml of milk
  number of strains killed: 4 strains
Staph.Aureus [4]; 0.31 meg/ml of milk
  number of strains killed: 14 strains
Staph.Aureus [4]; 0.62 meg/ml of milk
  number of strains killed: 51 strains
Staph.Aureus [4]; 1.25 meg/ml of milk
  number of strains killed: 15 strains
Staph.Aureus [4]; [9]
  number of strains killed: 1 strains
Str.dysgal.; 50 mg
  cured quarters, percent: 62.5%
  cured quarters/treated quarters: 10/16
Str.dysgal.; 100 mg
  cured quarters, percent: 80%
  cured quarters/treated quarters: 4/5
Str.dysgal.; 250 mg
  cured quarters, percent: 83%
  cured quarters/treated quarters: 5/6

## COc1ccc2c(-c3ccc([N+](=O)[O-])o3)cc[n+]([O-])c2c1 [Compound 19]
udder
  number of leucocytes (sematic cells) in milk, 40 hrs.: 5 10^6 per ml
  number of leucocytes (sematic cells) in milk, 48 hrs.: 3 10^6 per ml
  number of leucocytes (sematic cells) in milk, 56 hrs.: 2 10^6 per ml
  number of leucocytes (sematic cells) in milk, before: 0.60 10^6 per ml
[1]
  concentration at 24 h: 26500 ng/mL
  concentration at 32 h: 5000 ng/mL
Staph.Aureus [2]; [5]
  MBC: 0.5 µg/mL (≈ 1.75 µM)
Staph.Aureus [2]; [6]
  MBC: 0.5 µg/mL (≈ 1.75 µM)
Strep.uberis; [7]
  MBC: 0.12 µg/mL (≈ 0.419 µM)
Strep.uberis; [8]
  MBC: 0.5 µg/mL (≈ 1.75 µM)
[3]
  activity in presence of milk (in words): significant activity in milk

## Cc1cc(-c2ccc([N+](=O)[O-])o2)c2ccc(O)cc2[n+]1[O-] [Compound 22]
udder
  number of leucocytes (sematic cells) in milk, 40 hrs.: 5 10^6 per ml
  number of leucocytes (sematic cells) in milk, 48 hrs.: 5 10^6 per ml
  number of leucocytes (sematic cells) in milk, 56 hrs.: 3.15 10^6 per ml
  number of leucocytes (sematic cells) in milk, before: 0.28 10^6 per ml
[1]
  concentration at 24 h: 20000 ng/mL
Staph.Aureus [2]; [5]
  MBC: 1 µg/mL (≈ 3.49 µM)
Staph.Aureus [2]; [6]
  MBC: 0.5 µg/mL (≈ 1.75 µM)
Strep.uberis; [7]
  MBC: 0.12 µg/mL (≈ 0.419 µM)
Strep.uberis; [8]
  MBC: 0.5 µg/mL (≈ 1.75 µM)
[3]
  activity in presence of milk (in words): significant activity in milk

## CCOc1ccc2c(-c3ccc([N+](=O)[O-])o3)cc(C(=O)O)[n+]([O-])c2c1 [Compound 26]
udder
  number of leucocytes (sematic cells) in milk, 40 hrs.: > 7.5 10^6 per ml
  number of leucocytes (sematic cells) in milk, 48 hrs.: 3 10^6 per ml
  number of leucocytes (sematic cells) in milk, 56 hrs.: 2.65 10^6 per ml
  number of leucocytes (sematic cells) in milk, before: 0.22 10^6 per ml
[1]
  concentration at 24 h: 12000 ng/mL
  concentration at 32 h: 5000 ng/mL
Staph.Aureus [2]; [5]
  MBC: 1 µg/mL (≈ 2.9 µM)
Staph.Aureus [2]; [6]
  MBC: 1 µg/mL (≈ 2.9 µM)
Strep.uberis; [7]
  MBC: 0.03 µg/mL (≈ 0.0871 µM)
Strep.uberis; [8]
  MBC: 1 µg/mL (≈ 2.9 µM)
[3]
  activity in presence of milk (in words): significant activity in milk

## Necmycin [reference compound]
Staph.Aureus [2]; field isolate 2337
  Minimal Bactericidal Activity (MBC), Staph.Aureus 2337: 12.5 µg/mL
Staph.Aureus [2]; field isolate 2372
  Minimal Bactericidal Activity (MBC), Staph.Aureus 2372: 12.5 µg/mL
Strep.uberis; field isolate 60B
  Minimal Bactericidal Activity (MBC), Strep.uberis 60B: 200 µg/mL
Strep.uberis; field isolate 127A
  Minimal Bactericidal Activity (MBC), Strep.uberis 127A: 200 µg/mL

## Spiramycin [reference compound]
Staph.Aureus [2]; field isolate 2337
  Minimal Bactericidal Activity (MBC), Staph.Aureus 2337: 25 µg/mL
Staph.Aureus [2]; field isolate 2372
  Minimal Bactericidal Activity (MBC), Staph.Aureus 2372: 25 µg/mL
Strep.uberis; field isolate 60B
  Minimal Bactericidal Activity (MBC), Strep.uberis 60B: 1.56 µg/mL
Strep.uberis; field isolate 127A
  Minimal Bactericidal Activity (MBC), Strep.uberis 127A: 12.5 µg/mL
